Experimental data taken from patent US9290511B2, “Thieno-pyrimidines, useful as potassium channel inhibitors” (XENTION LIMITED, priority 2011, dated 2016).
pIC50: −log10 of the molar value.

Target: T1, Kir3.1/3.4 (Rattus norvegicus, UniProt P48548+P63251)
T1 construct: expressed in transfected cells
T1 sequence (P63251 1-501): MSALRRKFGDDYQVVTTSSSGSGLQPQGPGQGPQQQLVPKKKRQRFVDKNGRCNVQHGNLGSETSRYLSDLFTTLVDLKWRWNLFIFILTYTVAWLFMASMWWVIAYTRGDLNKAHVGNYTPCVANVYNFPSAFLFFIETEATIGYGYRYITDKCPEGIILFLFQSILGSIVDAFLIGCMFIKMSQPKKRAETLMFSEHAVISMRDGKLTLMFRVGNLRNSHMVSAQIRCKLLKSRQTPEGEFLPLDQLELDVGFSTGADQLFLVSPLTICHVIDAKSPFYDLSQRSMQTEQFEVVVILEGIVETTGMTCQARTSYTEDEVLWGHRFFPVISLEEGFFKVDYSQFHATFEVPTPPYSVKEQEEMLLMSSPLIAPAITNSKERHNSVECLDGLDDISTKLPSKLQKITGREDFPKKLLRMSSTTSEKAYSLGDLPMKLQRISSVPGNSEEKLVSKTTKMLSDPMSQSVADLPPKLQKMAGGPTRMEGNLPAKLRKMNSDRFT
T1 sequence (P48548 1-419): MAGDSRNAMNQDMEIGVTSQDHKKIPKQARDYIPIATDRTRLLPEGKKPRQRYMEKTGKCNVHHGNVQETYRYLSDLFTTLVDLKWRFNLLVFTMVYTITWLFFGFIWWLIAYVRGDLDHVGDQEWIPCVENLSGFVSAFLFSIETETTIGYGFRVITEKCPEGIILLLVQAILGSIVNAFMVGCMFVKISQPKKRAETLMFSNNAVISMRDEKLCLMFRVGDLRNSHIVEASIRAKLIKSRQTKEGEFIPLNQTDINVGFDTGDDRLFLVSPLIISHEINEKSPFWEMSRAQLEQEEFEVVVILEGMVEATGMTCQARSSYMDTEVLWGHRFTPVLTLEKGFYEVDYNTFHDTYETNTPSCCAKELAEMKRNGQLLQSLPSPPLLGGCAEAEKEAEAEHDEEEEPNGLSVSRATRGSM
Assay: Kir3.1/3.4 Electrophysiology Method (manual whole-cell patch clamp)
Format: cell-based
Conditions: Electrophysiology Method (TABLE 1)
Method in brief: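 Percent inhibition is relative to the pre-drug current, both leak-subtracted using a potassium-free bather, taken as the mean current at −140 mV. The protocol was a step to +60 mV, a ramp to −140 mV, then a return to −60 mV holding, every 10 s. Cells were rat Kir3.1/3.4-transfected HEK293 recorded by whole-cell patch clamp.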

| Compound | pIC50 |
| --- | --- |
| COc1cccc(-c2csc3ncnc(N4CCC(COCCN5CCCC5)CC4)c23)c1 [Example 312] | > 6.30 |
| FC(F)(F)Oc1cccc(-c2csc3ncnc(N4CCC(COCCN5CCCC5)CC4)c23)c1 [Example 313] | > 6.30 |
| Nc1nc(N2CCC(COCCN3CCCC3)CC2)c2c(-c3ccccc3)csc2n1 [Example 314, 5-phenyl-4-[4-(2-pyrrolidin-1-ylethoxymethyl)-1-piperidyl]thieno[2,3-d]pyrimidin-2-amine] | > 6.30 |
| c1nc(N2CCC(COCCN3CCCC3)CC2)c2c(-c3ccoc3)csc2n1 [Example 315] | > 6.30 |
| c1nc(N2CCC(COCCN3CCCC3)CC2)c2c(-c3ccsc3)csc2n1 [Example 317] | > 6.30 |
| CC(C)(C)NC(C)(C)C#Cc1ncnc2scc(-c3ccccc3)c12 [Example 318] | > 6.30 |
| c1nc(N2CCC(COCCN3CCCC3)CC2)c2c(-c3ccc4c(c3)OCO4)csc2n1 [Example 319] | > 6.30 |
| c1ccc(-c2csc3ncnc(N4CCC(COCCN5CCCC5)CC4)c23)nc1 [Example 320] | 5.52 to 6.30 |
| c1ccc(-c2csc3nc(C4CC4)nc(N4C5CCC4CC(NC4CCC4)C5)c23)cc1 (centres unmarked) [Example 321, N-cyclobutyl-8-(2-cyclopropyl-5-phenyl-thieno[2,3-d]pyrimidin-4-yl)-8-azabicyclo[3.2.1]octan-3-amine] | > 6.30 |
| c1ccc(-c2csc3nc(C4CC4)nc(N4C5CCC4CC(N4CCC4)C5)c23)cc1 (centres unmarked) [Example 322] | > 6.30 |
| c1ccc(-c2csc3ncnc(N4C5CCC4CC(CNC4CCC4)C5)c23)cc1 (centres unmarked) [Example 323] | > 6.30 |
| c1cncc(-c2csc3ncnc(N4CCC(COCCN5CCCC5)CC4)c23)c1 [Example 324] | 5.52 to 6.30 |
| c1ccc(-c2csc3ncnc(N4C5CCC4CC(N4CCC4)C5)c23)cc1 (centres unmarked) [Example 326] | > 6.30 |
| CC(C)NC1CC2CCC(C1)N2c1ncnc2scc(-c3ccccc3)c12 (centres unmarked) [Example 327, N-isopropyl-8-(5-phenylthieno[2,3-d]pyrimidin-4-yl)-8-azabicyclo[3.2.1]octan-3-amine] | > 6.30 |
| CC(C)Oc1ncccc1-c1csc2ncnc(N3CCC(COCCN4CCCC4)CC3)c12 [Example 328] | > 6.30 |
| COc1ccccc1-c1csc2ncnc(N3CCC(COCCN4CCCC4)CC3)c12 [Example 329] | > 6.30 |
| CN(C)C(=O)c1ccccc1-c1csc2ncnc(N3CCC(COCCN4CCCC4)CC3)c12 [Example 330] | 5.00 to 5.52 |
| CCOc1ncccc1-c1csc2ncnc(N3CCC(COCCN4CCCC4)CC3)c12 [Example 331] | > 6.30 |
| CN(C)C(=O)c1cccc(-c2csc3ncnc(N4CCC(COCCN5CCCC5)CC4)c23)c1 [Example 332] | 5.52 to 6.30 |

| Compound | pIC50 |
| --- | --- |
| CC(C)(C)NCC1CC2CCC(C1)N2c1ncnc2scc(-c3ccccc3)c12 (centres unmarked) [Example 333] | > 6.30 |
| CC(C)NCC1CC2CCC(C1)N2c1ncnc2scc(-c3ccccc3)c12 (centres unmarked) [Example 334] | > 6.30 |
| c1ccc(-c2csc3ncnc(N4C5CCC4CC(CN4CCCC4)C5)c23)cc1 (centres unmarked) [Example 335] | > 6.30 |
| FC(F)(F)c1nc(N2CCOCC2)c2c(-c3ccccc3)csc2n1 [Example 336] | 5.52 to 6.30 |
| NC(=O)C1CCN(c2nc(N3C4CCC3CC(NC3CCC3)C4)c3c(-c4ccccc4)csc3n2)C1 (centres unmarked) [Example 337, 1-[4-[3-(cyclobutylamino)-8-azabicyclo[3.2.1]octan-8-yl]-5-phenyl-thieno[2,3-d]pyrimidin-2-yl]pyrrolidine-3-carboxamide] | 5.52 to 6.30 |
| FC(F)(F)c1nc(N2CCC(COCCN3CCCC3)CC2)c2c(-c3ccccc3)csc2n1 [Example 340, 5-phenyl-4-[4-(2-pyrrolidin-1-ylethoxymethyl)-1-piperidyl]-2-(trifluoromethyl)thieno[2,3-d]pyrimidine] | > 6.30 |
| FC(F)(F)Oc1ccccc1-c1csc2ncnc(N3C4CCC3CC(NC3CCC3)C4)c12 (centres unmarked) [Example 341] | > 6.30 |
| COc1ccccc1-c1csc2ncnc(N3C4CCC3CC(NC3CCC3)C4)c12 (centres unmarked) [Example 342] | > 6.30 |
| Cc1ccccc1-c1csc2ncnc(N3C4CCC3CC(NC3CCC3)C4)c12 (centres unmarked) [Example 344] | > 6.30 |
| COc1ncccc1-c1csc2ncnc(N3C4CCC3CC(NC3CCC3)C4)c12 (centres unmarked) [Example 345] | > 6.30 |
| COc1ncc(F)cc1-c1csc2ncnc(N3C4CCC3CC(NC3CCC3)C4)c12 (centres unmarked) [Example 346] | 5.52 to 6.30 |
| CN(C)C(=O)c1sc2ncnc(N3C4CCC3CC(N(C)C3CCC3)C4)c2c1-c1ccccc1 (centres unmarked) [Example 347] | > 6.30 |
| COC1CC2CCC(C1)N2c1nc(OC2CC3CC2CN3)nc2scc(-c3ccccc3)c12 (centres unmarked) [Example 348] | > 6.30 |
| c1ccc(-c2csc3nc(OC4CC5CC4CN5)nc(N4C5CCC4COC5)c23)cc1 (centres unmarked) [Example 349, 8-[2-(2-azabicyclo[2.2.1]heptan-5-yloxy)-5-phenyl-thieno[2,3-d]pyrimidin-4-yl]-3-oxa-8-azabicyclo[3.2.1]octane] | > 6.30 |
| COc1ccccc1-c1csc2ncnc(N3C4CCC3CC(N(C)C3CCC3)C4)c12 (centres unmarked) [Example 350] | > 6.30 |
| COc1ncccc1-c1csc2ncnc(N3C4CCC3CC(N(C)C3CCC3)C4)c12 (centres unmarked) [Example 351, N-cyclobutyl-8-[5-(2-methoxy-3-pyridyl)thieno[2,3-d]pyrimidin-4-yl]-N-methyl-8-azabicyclo[3.2.1]octan-3-amine] | > 6.30 |
| COCC1CC2CCC(C1)N2c1nc(OC2CC3CC2CN3)nc2scc(-c3ccccc3)c12 (centres unmarked) [Example 352] | > 6.30 |
| CN(C)C(=O)c1sc2ncnc(N3C4CCC3CC(N3CCCC3)C4)c2c1-c1ccccc1 (centres unmarked) [Example 353, N,N-dimethyl-5-phenyl-4-(3-pyrrolidin-1-yl-8-azabicyclo[3.2.1]octan-8-yl)thieno[2,3-d]pyrimidine-6-carboxamide] | > 6.30 |
| CC(C)NC(=O)c1sc2ncnc(N3C4CCC3CC(N3CCCC3)C4)c2c1-c1ccccc1 (centres unmarked) [Example 354] | > 6.30 |

| Compound | pIC50 |
| --- | --- |
| CN(C)C(=O)c1sc2ncnc(N3C4CCC3CC(COCCN3CCCC3)C4)c2c1-c1ccccc1 (centres unmarked) [Example 356] | > 6.30 |
| CC(C)NC(=O)c1sc2ncnc(N3C4CCC3CC(COCCN3CCCC3)C4)c2c1-c1ccccc1 (centres unmarked) [Example 357] | > 6.30 |
| COc1ccccc1-c1csc2nc(C3CC3)nc(N3CCC(COCCN4CCCC4)CC3)c12 [Example 358, 2-cyclopropyl-5-(2-methoxyphenyl)-4-[4-(2-pyrrolidin-1-ylethoxymethyl)-1-piperidyl]thieno[2,3-d]pyrimidine] | > 6.30 |
| FC(F)(F)c1nc(N2C3CCC2CC(NC2CCC2)C3)c2c(-c3ccccc3)csc2n1 (centres unmarked) [Example 359] | > 6.30 |
| c1ccc(-c2csc3nc(C4CC4)nc(N4CCC(COCCN5CCCC5)CC4)c23)cc1 [Example 360] | > 6.30 |
| CNC(=O)c1sc2ncnc(N3C4CCC3CC(COCCN3CCCC3)C4)c2c1-c1ccccc1 (centres unmarked) [Example 361] | > 6.30 |
| COc1ccccc1-c1csc2ncnc(N3C4CCC3CC(COCCN3CCCC3)C4)c12 (centres unmarked) [Example 362] | > 6.30 |
| COc1ncccc1-c1csc2ncnc(N3C4CCC3CC(COCCN3CCCC3)C4)c12 (centres unmarked) [Example 363] | > 6.30 |
| CN(C)C(=O)c1ccccc1-c1csc2ncnc(N3C4CCC3CC(COCCN3CCCC3)C4)c12 (centres unmarked) [Example 364] | > 6.30 |
| COc1ncccc1-c1csc2ncnc(N3C4CCC3CC(CO)C4)c12 (centres unmarked) [Example 365] | 5.52 to 6.30 |
| COCC1C[C@H]2CC[C@@H](C1)N2c1nc(OC2CC3CC2CN3)nc2sc(C(=O)N(C)C)c(-c3ccccc3)c12 (stereo partly drawn) [Example 366, 2-(2-azabicyclo[2.2.1]heptan-5-yloxy)-4-[(1S,5R)-3-(methoxymethyl)-8-azabicyclo[3.2.1]octan-8-yl]-N,N-dimethyl-5-phenyl-thieno[2,3-d]pyrimidine-6-carboxamide] | 5.52 to 6.30 |
| COc1ccccc1-c1csc2ncnc(N3C4CCC3CC(CNC3CCC3)C4)c12 (centres unmarked) [Example 367] | > 6.30 |
| O=C1NCCN1c1sc2ncnc(N3CCC(COCCN4CCCC4)CC3)c2c1-c1ccccc1 [Example 368] | > 6.30 |
| CCc1nc(N2CCC(N(C)C)CC2)c2c(-c3ccccc3)csc2n1 [Example 370] | > 6.30 |
| N,N-dimethyl-5-phenyl-thieno[2,3-d]pyrimidine-6-carboxamide [Example 339] | > 6.30 |
| N-(2-pyrrolidin-1-ylethyl)thieno[2,3-d]pyrimidin-2-amine [Example 108] | 5.52 to 6.30 |
| N-(2-pyrrolidin-1-ylethyl)thieno[2,3-d]pyrimidin-2-amine [Example 127] | > 6.30 |
| N-methyl-5-phenyl-thieno[2,3-d]pyrimidine-6-carboxamide [Example 343] | 5.52 to 6.30 |
